One compound from patent publication US20210244637A1, “DEUTERATED POLYUNSATURATED FATTY ACIDS OR ESTERS THEREOF FOR COSMETIC APPLICATIONS” (Retrotope, Inc., priority 2020, published 2021) can be followed below.

In this assay the test system is 2-nonenal. The experiment in a line: Reduction in skin odor: 2-nonenal in urine of mice fed D2-LA ethyl ester. The class given is in vivo. To be noted: BALB/c mice; feed supplemented daily, no more than about 10% of PUFAs ingested; after 4 weeks of dosing; urine collected over 2 days; versus LA ethyl ester cohort. As for the experimental part: Mice are known to generate skin odor and the causative agent is 2-nonenal. This example explores the contribution of lipid chain auto-oxidation to the generation of such skin odor. Specifically, two cohorts of BALB/c mice are tested. The feed of the first cohort is supplemented daily with D2-LA ethyl ester in an amount such that D2-LA ethyl ester constitutes no more than about 10% of the PUFAs ingested. The feed provided to the other cohort is supplemented with LA ethyl ester in otherwise identical amounts. After 4 weeks of dosing, the urine from each cohort is collected over a 2-day period and then analyzed to assess differences in the amount of 2-nonenal. Alternatively, skin samples can be evaluated for sebum exudates such as by swabs for chemical components.

For the compound `[2H]C([2H])(/C=C\CCCCC)/C=C\CCCCCCCC(=O)OCC` [D2-linoleic acid ethyl ester], the “amount of 2-nonenal” value is listed as “significant reduction”.
